Assay [1] relates to cardiac allograft in presensitized rats. The note with it: cited from earlier work.
Assay [2] concerns heart allografts in presensitized mouse recipients. The assay can be described thus: Immunoperoxidase staining of heart allografts. The format is in vivo. On the set-up: key to C3 immunoperoxidase staining grade / C5 immunoperoxidase staining grade / CD4 immunoperoxidase staining grade / CD8 immunoperoxidase staining grade / Mac-1 immunoperoxidase staining grade / IgG immunoperoxidase staining grade / IgM immunoperoxidase staining grade: 0, negative; 1+, equivocal; 2+, weak; 3+, moderate; 4+, intense. From the text:
Four micrometer sections were cut from tissue samples embedded in Tissue-Tek O.C.T gel (Optimum Cutting Temperature, Skura Finetek, Torrance, Calif.) mounted on gelatin-coated glass microscope slides and stained by a standard indirect avidin-biotin immunoperoxidase staining method using an Elite Vectastain ABC kit (Vector Laboratories Inc., Burlingame, Calif.). Specimens were stained for CD4^+ and CD8^+ cells with biotin-conjugated rat anti-mouse CD4 mAb (clone YTS 191.1.2, Cedarlane Laboratories Ltd., Hornby, Ontario, Canada) and biotin-conjugated rat anti-mouse CD8 mAb (clone 53-6.7, Pharmingen, Franklin Lakes, N.J.), respectively. Intragraft monocyte/macrophage infiltration was detected by staining with biotin-conjugated rat anti-mouse Mac-1 mAb (Cedarlane Laboratories Ltd., Hornby, Ontario, Canada). Mouse IgG and IgM deposition in grafts was detected using biotin-conjugated goat anti-mouse-IgG and goat anti-mouse-IgM (Cedarlane). For identification of complement deposition, sections were serially incubated with goat anti-C3 or anti-C5 polyclonal Abs (Quidel, San Diego, Calif.), biotinylated rabbit anti-goat IgG (Vector Laboratories), and HRP-conjugated-streptavidin (Zymed Laboratories, South San Francisco, Calif.). Slides were washed with phosphate-buffered saline between steps, and examined under light microscopy. Negative controls were performed by omitting the primary antibodies. The immunostaining was scored in five high-power fields of each section, and five independent experiments were performed. The sections of immunoperoxidase staining were graded from 0 to 4+ according to the staining intensity: 0, negative; 1+, equivocal; 2+, weak staining; 3+, moderate staining; and 4+, very intensive staining.

The test system of assay [3] is C3H heart allografts in presensitized BALB/c recipients. In words: Heart allograft survival in presensitized recipients (Examples 1-2). Type of assay: in vivo, mouse. To be noted: C3H heart in skin-presensitized BALB/c; mean±SD; CsA 15 mg/kg/day s.c., CyP 40 mg/kg/day i.v. day 0 and 1, anti-C5 mAb 40 mg/kg/day i.p. From the text:
Rejection was defined as complete necrosis of the skin grafts.
(§1) However, the inhibitory effect of functionally blocking terminal complement cascade at the C5 level in highly sensitized recipients is unknown.

Assay [4] deals with C3H heart allografts in BALB/c mice presensitized with C3H skin grafts. In words: Accelerated rejection in presensitized heart transplantation model, allograft survival (Example 4). To be noted: BB5.1 40 mg/kg i.p. daily from day -1, cyclosporin A 15 mg/kg s.c. daily, cyclophosphamide 40 mg/kg i.v. days 0 and 1. Type of assay: in vivo, mouse. The source says: In these experiments, the presensitization was brought about by prior transplantation of a skin graft. In general, presensitization can occur not only as a result of having received an earlier allograft, but can also be caused by having received multiple blood transfusions or in women who have been pregnant. Besides such presensitization methods, allografts with an ABO mismatch will be rapidly attacked and rejected because of preformed antibodies to the ABO antigens unless steps are taken to prevent such an attack.
(§2) This model is designed to mimic presensitized transplantation in humans, especially in relation to accelerated humoral rejection. Recipient mice were split into eight groups of six to eight mice each. The treatments were as follow.
Group 3″ (BB5.1 alone)—mice were administered the anti-mouse complement monoclonal antibody BB5.1 at a dose of 40 mg/kg body weight delivered intraperitoneally on a daily basis beginning at day −1 and continuing until the endpoint.
Group 4″ (cyclophosphamide alone)—mice were administered cyclophosphamide intravenously at a dose of 40 mg/kg body weight on each of days 0 and 1.
Group 6″ (BB5.1 plus cyclophosphamide)—mice were administered BB5.1 intraperitoneally at a dose of 40 mg/kg body weight on a daily basis beginning at day −1 and continuing until the endpoint. […]

The test system is the same in assay [5]. In words: Histological changes of heart allografts at necropsy (Example 4). Type of assay: in vivo, mouse. To be noted: endpoint, 0 normal to 4 marked change.
Description: (§3) Tissue samples were fixed in 10% buffered formaldehyde. Specimens were then embedded in paraffin, and sectioned for H&E staining. The microscopic sections were examined in a blinded fashion for severity of rejection by a pathologist. Criteria for graft rejection included the presence of vasculitis, thrombosis, hemorrhage and lymphocyte infiltration. These changes were scored as: 0, no change; 1, minimum change; 2, mild change; 3, moderate change; or 4, marked change.
as §2

The test system of assay [6] is anti-donor specific IgG and IgM antibodies. In words: Flow cytometry of circulating anti-donor antibodies. To be noted: presensitized recipients, POD3. The format is in vivo, mouse. As for the experimental part: The circulating anti-donor specific IgG and IgM antibodies were evaluated in the recipient serum by FACScan flow cytometry (Becton Dickinson, Mountain View, Calif.). Glotz et al., (1993); Tyan et al. (1994). Briefly, C3H mouse splenocytes were isolated and incubated at 37° C. for 30 minutes with serum from naive control and experimental groups. To stain for total IgG, IgG1, IgG2a, IgG2b and IgM, the cells were washed and incubated with FITC-conjugated goat antibody specific for the Fc portion of mouse IgG or with phycoerythrin-conjugated goat antibody specific for the μ-chain of mouse IgM (Jackson ImmunoResearch Laboratories, West Grove, Pa.), or with FITC-conjugated goat anti-mouse IgG1 (CALTAG Laboratories, Burlingame, Calif.), or with FITC-conjugated goat anti-mouse IgG2a (CALTAG), or with FITC-conjugated goat anti-mouse IgG2b (CALTAG). After 1 hour of staining at 4° C., the cells were washed with PBS, resuspended at 5×10^6/mL, and analyzed by flow cytometry for mean channel fluorescence intensity, which represents the antibody-binding reactivity.
Background: In flow cytometry, cells or beads pass a laser one at a time.

Assay [7] has as its system C3H heart allografts in presensitized BALB/c recipients. In words: Graft histology (H&E), presensitized model (Examples 1-2). The format is in vivo, mouse. The note with it: at rejection or POD100.
Description: as §3, §1

Assay [8] relates to terminal complement activity. In words: Complement hemolytic assay of recipient sera. The format is in vivo, mouse. To be noted: presensitized heart recipients, POD3. Here is the method:
The purified anti-C5 mAb was serially diluted twofold (175-0.1 μg/ml) in GVB^2+ buffer (gelatin Veronal-buffered saline: 0.1% gelatin, 141 mM NaCl, 0.5 mM MgCl2, 0.15 mM CaCl2), and 1.8 mM sodium barbital) and added in triplicate (50 μl/well) to a 96-well plate. BALB/c mouse serum was diluted to 40% v/v with GVB^2+ buffer and added […] to the rows of the same 96-well plate such that the final concentration of BALB/c mouse serum in each well was 20%. The plate was then incubated at room temperature for approximately 30 min while chicken erythrocytes were prepared. Chicken erythrocytes were washed 5×1 ml with GVB^2+ buffer and resuspended to a final concentration of 5×10^7/ml in GVB^2+. Four milliliters of the chicken erythrocytes were sensitized by adding anti-chicken RBC polyclonal antibody (Intercell Technologies, Hopewell, N.J., 0.1% v/v) and the cells were incubated at 4° C. for 15 min with frequent vortexing. The cells were then washed 2×1 ml with GVB^2+ and resuspended to a final volume of 2.4 ml in GVB^2+. […] The plate was read at OD 415 nm using a microplate reader and the percentage of hemolysis was determined using this formula: […]
In the current study, terminal complement activity was measured by assessing the ability of recipient mouse sera to lyse antibody presensitized chicken erythrocytes and was compared at the same time-point (POD3).

Here are results for two compounds from patent US20190309053A1, “PROLONGATION OF SURVIVAL OF AN ALLOGRAFT BY INHIBITING COMPLEMENT ACTIVITY” (Alexion Pharmaceuticals, Inc., priority 2004, published 2019).

Regarding “sCR1: soluble complement receptor 1; binds complements C3b and C4b”, the “time before graft rejection” value in assay [1] (Pruitt and Bollinger (1991), similar presensitized rat allograft model, sCR1 alone) was “increased time before graft rejection”. In addition, in assay [1] (presensitized rats, cyclosporin A 10 mg/kg/day i.m. from two days prior to transplant, sCR1 single i.v. bolus 15 mg/kg before reperfusion), the “average time at which grafts were rejected” value was 44 days.

For the compound `O=P1(N(CCCl)CCCl)NCCCO1` (centres unmarked) [Cyclophosphamide, cyclophosphamide], in assay [2], the “intragraft Mac-1+ cell infiltration (monocytes and macrophages)” value was “moderate”. In addition, in assay [2] (necropsy POD3), the “C3 immunoperoxidase staining grade” value is 3+, the “C5 immunoperoxidase staining grade” value is 3+, the “CD4 immunoperoxidase staining grade” value is recorded as 1+ and the “CD8 immunoperoxidase staining grade” value was 1+. Moreover, in assay [2] (necropsy POD3), the “IgG immunoperoxidase staining grade” value is 3+, the “IgM immunoperoxidase staining grade” value is 1+ and the “Mac-1 immunoperoxidase staining grade” value is reported as 3+. In addition, in assay [3], the “heart graft survival (grafts were rejected in)” value turned out to be 3.3 ± 0.5 days. For the same compound, the “Mean survival time” value in assay [4] is given as 3.3 ± 0.5 days. Besides, in assay [5], the “Hemo (hemorrhage) median histological score” value worked out at 2.0, the “Infar (infarction) median histological score” value amounted to 4.0, the “Lymph (lymphocyte infiltration) median histological score” value turned out to be 0.0 and the “Throm (thrombosis) median histological score” value is reported as 3.0. In addition, the “Vasc (vasculitis) median histological score” value in assay [5] is reported as 2.0. The “circulating anti-donor IgG levels” value in assay [6] is “partially down-regulated”. The “graft histology (pathological features)” value in assay [7] is recorded as “typical pathological features of ACHR”. Also, in assay [8], the “terminal complement activity (lysis of antibody presensitized chicken erythrocytes by recipient sera)” value was “had no effect”.
